Values after ≈ are worked out from the molar mass of the structure shown.
Key:
Format in all cases: cell-based
[1] = tested on: Pseudomonas aeruginosa 104; assay: Minimum Inhibitory Concentration, Pseudomonas aeruginosa 104; conditions: Pseudomonas aeruginosa 104; for MIC: read-out: Minimum Inhibitory Concentration
Description: (§1) anti-microbial activity tests were carried out on the compounds obtained in the Examples.

[2] = tested on: Serratia No. 72; assay: Minimum Inhibitory Concentration, Serratia No. 72
Description: as §1

[3] = tested on: Escherichia coli NIHJ; assay: Minimum Inhibitory Concentration, Escherichia coli NIHJ; conditions: Escherichia coli NIHJ; for MIC: read-out: Minimum Inhibitory Concentration
Description: as §1

[4] = tested on: Enterobacter aerogeneus No. 75; assay: Minimum Inhibitory Concentration, Enterobacter aerogeneus No. 75; conditions: Enterobacter aerogeneus No. 75; for MIC: read-out: Minimum Inhibitory Concentration
Description: as §1

[5] = tested on: Staphylococcus aureus 209 P; assay: Minimum Inhibitory Concentration, Staphylococcus aureus 209 P; conditions: Staphylococcus aureus 209 P; for MIC: read-out: Minimum Inhibitory Concentration
Description: as §1

[6] = tested on: Staphylococcus aureus FS 289; assay: Minimum Inhibitory Concentration, Staphylococcus aureus FS 289; conditions: Staphylococcus aureus FS 289, strain resistant to penicillin; for MIC: FS289, read-out: Minimum Inhibitory Concentration
Description: as §1
*Staphylococcus aureus FS 289: strain resistant to penicillin

[7] = tested on: Proteus vulgaris HX 19; assay: Minimum Inhibitory Concentration, Proteus vulgaris HX 19; conditions: Proteus vulgaris HX 19; for MIC: HX19, read-out: Minimum Inhibitory Concentration
Description: as §1

[8] = tested on: Klebsiella pneumoniae 602; assay: Minimum Inhibitory Concentration, Klebsiella pneumoniae 602; conditions: for MIC: Klebsiella pneumoniae, 602, Klebsiella pneumoniae 602, read-out: Minimum Inhibitory Concentration; for Minimum Inhibitory Concentration: Klebsiella pneumoniae 602
Description: as §1

| SMILES | MIC [1] | MIC [2] | MIC [3] | MIC [4] | MIC [5] | MIC [6] | MIC [7] | MIC [8] | Minimum Inhibitory Concentration [1] | Minimum Inhibitory Concentration [2] | Minimum Inhibitory Concentration [3] | Minimum Inhibitory Concentration [4] | Minimum Inhibitory Concentration [5] | Minimum Inhibitory Concentration [6] | Minimum Inhibitory Concentration [7] | Minimum Inhibitory Concentration [8] |
| --- | --- | --- | --- | --- | --- | --- | --- | --- | --- | --- | --- | --- | --- | --- | --- | --- |
| Cn1nnnc1SCC1=C(C(=O)O)N2C(=O)C(NC(=O)[C@H](NC(=O)c3ccnnc3O)c3ccc(O)cc3)C2SC1 (some centres unmarked) [Example 128] | 6.25 µg/mL (≈ 10.4 µM) | 50 µg/mL (≈ 83.4 µM) | 6.25 µg/mL (≈ 10.4 µM) | 12.5 µg/mL (≈ 20.8 µM) | 0.39 µg/mL (≈ 0.65 µM) | 6.25 µg/mL (≈ 10.4 µM) | 0.39 µg/mL (≈ 0.65 µM) | 6.25 µg/mL (≈ 10.4 µM) | – | – | – | – | – | – | – | – |
| Cc1nnc(SCC2=C(C(=O)O)N3C(=O)[C@@H](NC(=O)[C@H](NC(=O)c4cnc5cccnc5c4O)c4ccc(NC(N)=O)cc4)[C@H]3SC2)s1 [Example 20] | 3.13 µg/mL (≈ 4.42 µM) | 12.5 µg/mL (≈ 17.7 µM) | 3.13 µg/mL (≈ 4.42 µM) | 3.13 µg/mL (≈ 4.42 µM) | 0.78 µg/mL (≈ 1.1 µM) | 3.13 µg/mL (≈ 4.42 µM) | 0.1 µg/mL (≈ 0.141 µM) | 1.56 µg/mL (≈ 2.2 µM) | – | – | – | – | – | – | – | – |
| Cc1nnc(SCC2=C(C(=O)O)N3C(=O)[C@@H](NC(=O)[C@H](NC(=O)c4cnccc4O)c4ccc(NC(N)=O)cc4)[C@H]3SC2)s1 [Example 12, 7-[D-α-(4-Hydroxypyridine-3-carboxyamido)-α-(p-ureidophenyl)acetamido]-3-(2-methyl-1,3,4-thiadiazol-5-yl)thiomethyl-3-cephem-4-carboxylic Acid] | 6.25 µg/mL (≈ 9.52 µM) | 50 µg/mL (≈ 76.1 µM) | 6.25 µg/mL (≈ 9.52 µM) | 12.5 µg/mL (≈ 19 µM) | 0.39 µg/mL (≈ 0.594 µM) | 6.25 µg/mL (≈ 9.52 µM) | 0.1 µg/mL (≈ 0.152 µM) | 6.25 µg/mL (≈ 9.52 µM) | – | – | – | – | – | – | – | – |
| NC(=O)Nc1ccc([C@@H](NC(=O)c2cnc3cccnc3c2O)C(=O)N[C@@H]2C(=O)N3C(C(=O)O)=C(CSc4nnc(S)s4)CS[C@H]23)cc1 [Example 24] | 3.13 µg/mL (≈ 4.31 µM) | 12.5 µg/mL (≈ 17.2 µM) | 3.13 µg/mL (≈ 4.31 µM) | 3.13 µg/mL (≈ 4.31 µM) | 1.56 µg/mL (≈ 2.15 µM) | 6.25 µg/mL (≈ 8.61 µM) | 0.39 µg/mL (≈ 0.537 µM) | 1.56 µg/mL (≈ 2.15 µM) | – | – | – | – | – | – | – | – |
| Cn1nnnc1SCC1=C(C(=O)O)N2C(=O)C(NC(=O)[C@H](NC(=O)c3cnc4cncnc4c3O)c3ccc(O)cc3)C2SC1 (some centres unmarked) [Example 154] | 3.13 µg/mL (≈ 4.81 µM) | 12.5 µg/mL (≈ 19.2 µM) | 3.13 µg/mL (≈ 4.81 µM) | 6.25 µg/mL (≈ 9.61 µM) | 0.78 µg/mL (≈ 1.2 µM) | 12.5 µg/mL (≈ 19.2 µM) | 0.39 µg/mL (≈ 0.599 µM) | 6.25 µg/mL (≈ 9.61 µM) | – | – | – | – | – | – | – | – |
| Nc1cccc(C(NC(=O)c2cnccc2O)C(=O)NC2C(=O)N3C(C(=O)O)=C(CSc4nnc(CO)s4)CSC23)c1 (centres unmarked) [Example 84] | – | – | – | – | – | – | – | – | 6.25 µg/mL | 50 µg/mL | 6.25 µg/mL | 12.5 µg/mL | 0.39 µg/mL | 6.25 µg/mL | 0.2 µg/mL | 3.13 µg/mL |
| CC(=O)OCC1=C(C(=O)[O-])N2C(=O)C(NC(=O)C(NC(=O)c3ccnnc3O)c3ccc(NC(N)=O)cc3)C2SC1.[Na+] (centres unmarked) [Example 4] | – | – | – | – | – | – | – | – | 25 µg/mL | 100 µg/mL | 6.25 µg/mL | 50 µg/mL | 0.39 µg/mL | 6.25 µg/mL | 0.2 µg/mL | 6.25 µg/mL |
| Cc1nnc(SCC2=C(C(=O)O)N3C(=O)C(NC(=O)C(NC(=O)c4cnc5sccc5c4O)c4cccc(N)c4)C3SC2)s1 (centres unmarked) [Example 75] | 6.25 µg/mL (≈ 9.33 µM) | 25 µg/mL (≈ 37.3 µM) | 6.25 µg/mL (≈ 9.33 µM) | 12.5 µg/mL (≈ 18.7 µM) | 1.56 µg/mL (≈ 2.33 µM) | 12.5 µg/mL (≈ 18.7 µM) | 0.39 µg/mL (≈ 0.582 µM) | 3.13 µg/mL (≈ 4.67 µM) | – | – | – | – | – | – | – | – |
| Cc1nnc(SCC2=C(C(=O)O)N3C(=O)[C@@H](NC(=O)[C@H](NC(=O)c4cnc5ccc(N(C)C)nc5c4O)c4ccc(NC(N)=O)cc4)[C@H]3SC2)s1 [Example 28] | 3.13 µg/mL (≈ 4.17 µM) | 12.5 µg/mL (≈ 16.6 µM) | 1.56 µg/mL (≈ 2.08 µM) | 3.13 µg/mL (≈ 4.17 µM) | 1.56 µg/mL (≈ 2.08 µM) | 6.25 µg/mL (≈ 8.32 µM) | 0.1 µg/mL (≈ 0.133 µM) | 1.56 µg/mL (≈ 2.08 µM) | – | – | – | – | – | – | – | – |
| CSc1cnc2c(O)c(C(=O)NC(C(=O)NC3C(=O)N4C(C(=O)O)=C(CSc5nnc(C)s5)CSC34)c3ccc(CO)cc3)cnc2n1 (centres unmarked) [Example 104] | 6.25 µg/mL (≈ 8.6 µM) | 12.5 µg/mL (≈ 17.2 µM) | 6.25 µg/mL (≈ 8.6 µM) | 12.5 µg/mL (≈ 17.2 µM) | 1.56 µg/mL (≈ 2.15 µM) | 6.25 µg/mL (≈ 8.6 µM) | 0.39 µg/mL (≈ 0.537 µM) | 3.13 µg/mL (≈ 4.31 µM) | – | – | – | – | – | – | – | – |
| CC(=O)OCC1=C(C(=O)O)N2C(=O)[C@@H](NC(=O)[C@H](NC(=O)c3cnccc3O)c3ccc(NC(N)=O)cc3)[C@H]2SC1 [Example 1, 7-[D-α-(4-Hydroxypyridine-3-carboxyamido)-α-p-ureidophenylacetamido]cephalosporanic Acid] | 6.25 µg/mL (≈ 10.7 µM) | > 200 µg/mL | 12.5 µg/mL (≈ 21.4 µM) | 25 µg/mL (≈ 42.8 µM) | 0.39 µg/mL (≈ 0.667 µM) | 3.13 µg/mL (≈ 5.35 µM) | 0.2 µg/mL (≈ 0.342 µM) | 12.5 µg/mL (≈ 21.4 µM) | – | – | – | – | – | – | – | – |
| O=C(O)C1=C(CSc2nnc(CO)s2)CSC2C(NC(=O)C(NC(=O)c3cnccc3O)c3ccc(CO)cc3)C(=O)N12 (centres unmarked) [Example 110] | 12.5 µg/mL (≈ 19.4 µM) | 100 µg/mL (≈ 155 µM) | 12.5 µg/mL (≈ 19.4 µM) | 25 µg/mL (≈ 38.8 µM) | 0.78 µg/mL (≈ 1.21 µM) | 6.25 µg/mL (≈ 9.69 µM) | 0.39 µg/mL (≈ 0.605 µM) | 12.5 µg/mL (≈ 19.4 µM) | – | – | – | – | – | – | – | – |
| NC(=O)Nc1ccc([C@@H](NC(=O)c2cnc3cccnc3c2O)C(=O)N[C@@H]2C(=O)N3C(C(=O)O)=C(CSc4nncs4)CS[C@H]23)cc1 [Example 21] | 3.13 µg/mL (≈ 4.51 µM) | 12.5 µg/mL (≈ 18 µM) | 3.13 µg/mL (≈ 4.51 µM) | 3.13 µg/mL (≈ 4.51 µM) | 0.78 µg/mL (≈ 1.12 µM) | 3.13 µg/mL (≈ 4.51 µM) | 0.2 µg/mL (≈ 0.288 µM) | 1.56 µg/mL (≈ 2.25 µM) | – | – | – | – | – | – | – | – |
| COc1ccc2ncc(C(=O)NC(C(=O)NC3C(=O)N4C(C(=O)O)=C(CSc5nnnn5C)CSC34)c3cccc(O)c3)c(O)c2n1 (centres unmarked) [Example 164] | 3.13 µg/mL (≈ 4.6 µM) | 12.5 µg/mL (≈ 18.4 µM) | 3.13 µg/mL (≈ 4.6 µM) | 3.13 µg/mL (≈ 4.6 µM) | 0.78 µg/mL (≈ 1.15 µM) | 6.25 µg/mL (≈ 9.2 µM) | 0.2 µg/mL (≈ 0.294 µM) | 1.56 µg/mL (≈ 2.3 µM) | – | – | – | – | – | – | – | – |
| NC(=O)Nc1cccc([C@@H](NC(=O)c2cnc3cccnc3c2O)C(=O)N[C@@H]2C(=O)N3C(C(=O)O)=C(CSc4ccc(O)nn4)CS[C@H]23)c1 [Example 37] | 3.13 µg/mL (≈ 4.45 µM) | 12.5 µg/mL (≈ 17.8 µM) | 1.56 µg/mL (≈ 2.22 µM) | 6.25 µg/mL (≈ 8.88 µM) | 0.78 µg/mL (≈ 1.11 µM) | 6.25 µg/mL (≈ 8.88 µM) | 0.2 µg/mL (≈ 0.284 µM) | 1.56 µg/mL (≈ 2.22 µM) | – | – | – | – | – | – | – | – |
| NC(=O)Nc1cccc(C(NC(=O)c2cccnc2O)C(=O)NC2C(=O)N3C(C(=O)O)=C(CSc4nnc(CO)s4)CSC23)c1 (centres unmarked) [Example 49] | 25 µg/mL (≈ 37.2 µM) | 50 µg/mL (≈ 74.3 µM) | 12.5 µg/mL (≈ 18.6 µM) | 25 µg/mL (≈ 37.2 µM) | 0.78 µg/mL (≈ 1.16 µM) | 12.5 µg/mL (≈ 18.6 µM) | 0.78 µg/mL (≈ 1.16 µM) | 6.25 µg/mL (≈ 9.29 µM) | – | – | – | – | – | – | – | – |
| NC(=O)Nc1ccc(C(NC(=O)c2cnccc2O)C(=O)NC2C(=O)N3C(C(=O)O)=C(CSc4nnc(CO)s4)CSC23)cc1 (centres unmarked) [Example 47] | 12.5 µg/mL (≈ 18.6 µM) | 50 µg/mL (≈ 74.3 µM) | 12.5 µg/mL (≈ 18.6 µM) | 12.5 µg/mL (≈ 18.6 µM) | 0.78 µg/mL (≈ 1.16 µM) | 6.25 µg/mL (≈ 9.29 µM) | 0.39 µg/mL (≈ 0.58 µM) | 3.13 µg/mL (≈ 4.65 µM) | – | – | – | – | – | – | – | – |
| CC(=O)OCC1=C(C(=O)O)N2C(=O)C(NC(=O)[C@H](NC(=O)c3cnc4cccnc4c3O)c3ccc(N)cc3)C2SC1 (stereo partly drawn) [Example 50, 7-[D-α-(4-Hydroxy-1,5-naphthyridine-3-carboxyamido)-α-p-aminophenylacetamido]cephalosporanic Acid] | 6.25 µg/mL (≈ 10.5 µM) | 50 µg/mL (≈ 84.4 µM) | 3.13 µg/mL (≈ 5.28 µM) | 6.25 µg/mL (≈ 10.5 µM) | 1.56 µg/mL (≈ 2.63 µM) | 6.25 µg/mL (≈ 10.5 µM) | 0.39 µg/mL (≈ 0.658 µM) | 3.13 µg/mL (≈ 5.28 µM) | – | – | – | – | – | – | – | – |
| Nc1cccc(C(NC(=O)c2cnc3cccnc3c2O)C(=O)NC2C(=O)N3C(C(=O)O)=C(CSc4nnc(CO)s4)CSC23)c1 (centres unmarked) [Example 66] | 3.13 µg/mL (≈ 4.6 µM) | 12.5 µg/mL (≈ 18.4 µM) | 3.13 µg/mL (≈ 4.6 µM) | 3.13 µg/mL (≈ 4.6 µM) | 0.78 µg/mL (≈ 1.15 µM) | 6.25 µg/mL (≈ 9.18 µM) | 0.1 µg/mL (≈ 0.147 µM) | 3.13 µg/mL (≈ 4.6 µM) | – | – | – | – | – | – | – | – |
